Read-outs that look alike come from different tables or passages of the source.
Tests used:
[1] = target: T1, COI1-JAZ6 complex (Arabidopsis thaliana, UniProt O04197+Q9C9E3); assay: Competition binding with 100 nM 3H-coronatine; details: relative to (3R,7S)-JA-Ile
T1 construct: Full-length Arabidopsis thaliana COI1 and ASK1 were co-expressed; Full-length JAZ substrate proteins were expressed as 6×His-fusion proteins in Escherichia coli; GST (cleaved yes); 6xHis; made in house; host or cells: Hi5 insect cells (COI1/ASK1); Escherichia coli (JAZ6)
T1 sequence (O04197 1-592): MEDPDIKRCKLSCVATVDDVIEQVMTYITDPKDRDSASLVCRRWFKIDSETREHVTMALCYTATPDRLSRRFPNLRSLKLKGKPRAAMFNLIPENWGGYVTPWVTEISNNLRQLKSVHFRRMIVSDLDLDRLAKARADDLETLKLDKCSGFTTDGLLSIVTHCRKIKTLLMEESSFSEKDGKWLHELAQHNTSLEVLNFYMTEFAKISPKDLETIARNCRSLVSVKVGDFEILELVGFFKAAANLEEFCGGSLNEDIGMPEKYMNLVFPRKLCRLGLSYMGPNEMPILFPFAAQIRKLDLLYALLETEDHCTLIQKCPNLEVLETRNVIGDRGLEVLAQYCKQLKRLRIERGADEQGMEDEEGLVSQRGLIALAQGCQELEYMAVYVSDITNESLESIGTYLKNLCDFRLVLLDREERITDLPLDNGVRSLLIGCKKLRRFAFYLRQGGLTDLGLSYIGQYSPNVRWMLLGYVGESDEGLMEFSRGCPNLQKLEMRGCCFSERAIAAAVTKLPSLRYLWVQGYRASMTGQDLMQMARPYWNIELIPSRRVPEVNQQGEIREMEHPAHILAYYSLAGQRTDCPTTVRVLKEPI
T1 sequence (Q39255 1-160 partner): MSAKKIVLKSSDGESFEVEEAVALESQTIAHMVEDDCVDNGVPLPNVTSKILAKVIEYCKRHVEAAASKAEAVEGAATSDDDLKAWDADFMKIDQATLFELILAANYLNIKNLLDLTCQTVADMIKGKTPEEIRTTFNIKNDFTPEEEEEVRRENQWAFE
T1 sequence (Q9C9E3 1-269): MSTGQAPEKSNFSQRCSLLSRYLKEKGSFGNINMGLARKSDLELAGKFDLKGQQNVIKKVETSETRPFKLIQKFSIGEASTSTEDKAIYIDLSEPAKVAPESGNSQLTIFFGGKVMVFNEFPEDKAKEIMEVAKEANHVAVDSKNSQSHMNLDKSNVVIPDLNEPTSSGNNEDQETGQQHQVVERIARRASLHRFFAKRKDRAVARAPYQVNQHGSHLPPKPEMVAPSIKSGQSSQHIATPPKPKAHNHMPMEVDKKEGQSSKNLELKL
Excerpt: (§1) (^3H)-labeled coronatine was synthesized by Amersham. Full-length Arabidopsis thaliana COI1 and ASK1 were co-expressed as a glutathione S-transferase (GST) fusion protein and an untagged protein, respectively, in Hi5 suspension insect cells. The COI1/ASK1 complex was isolated from the soluble cell lysate by glutathione affinity chromatography. After on-column tag cleavage by tobacco etch virus protease, the complex was further purified by anion exchange and gel filtration chromatography and concentrated by ultrafiltration to 12-18 mg ml^−1. Full-length JAZ substrate proteins were expressed as 6×His-fusion proteins in Escherichia coli and purified on Ni-NTA resin with subsequent dialysis into 20 mM Tris-HCl, pH 8.0, 200 mM NaCl, and 10% glycerol.
Radioligand binding was assayed on purified proteins, with 2 mg COI1/ASK1 complex and JAZ proteins at a 1:3 molar ratio. Reactions were prepared in […] final volume and in a binding buffer containing 20 mM Tris-HCl 200 mM NaCl, and 10% glycerol. Saturation binding experiments were conducted with serial dilutions of 3H-coronatine in binding buffer. Nonspecific binding was determined in the presence of […] coronatine. Competition binding experiments were conducted with serial dilutions of JA-Ile in the presence of 100 nM ^3H coronatine with nonspecific binding determined in the presence of […] coronatine. Total binding was determined in the presence of vehicle only. Two-point binding experiments were performed in the presence of 100 nM or 300 nM ^3H-coronatine with nonspecific binding determined in the presence of […] coronatine. Following incubation with mixing at 4° C., all samples were collected with a cell harvester (Brandel, Gaithersburg, Md.) on polyethyleneimine (Sigma)-treated filters. […] Saturation binding experiments were analyzed by nonlinear regression, competition binding experiments by nonlinear regression with Ki calculation as described previously (Cheng 1973), and concentration-response data by sigmoidal dose-response curve fitting, all using GraphPad Prism version 4.00 for MacOSX.

[2] = target: T2, full-length JAZ6 (Arabidopsis thaliana, UniProt Q9C9E3); assay: Radioligand binding of 3H-coronatine to full-length JAZ6 alone
T2 construct: 6xHis; made in house; host or cells: Escherichia coli
T2 sequence (Q9C9E3 1-269): T1 sequence (Q9C9E3 1-269)
Excerpt: as §1
Radioligand binding was assayed on purified proteins, with 2 mg COI1/ASK1 complex and JAZ proteins at a 1:3 molar ratio. […] Nonspecific binding was determined in the presence of […] coronatine. Competition binding experiments were conducted with serial dilutions of JA-Ile in the presence of 100 nM ^3H coronatine with nonspecific binding determined in the presence of […] coronatine. Total binding was determined in the presence of vehicle only. Two-point binding experiments were performed in the presence of 100 nM or 300 nM ^3H-coronatine with nonspecific binding determined in the presence of 300 mM coronatine. […]

Compound: CC[C@H]1C=C(C(=O)N[C@@]2(C(=O)O)C[C@@H]2CC)[C@H]2CCC(=O)[C@H]2C1 [coronatine]
- Affinity of coronatine over (3R,7S)-JA-Ile in binding assays [1]: approximately tenfold
- Binding affinity for JAZ6 alone [2]: minimal binding affinity
- Binding affinity for JAZ6 alone ([2]; listed as 3H-coronatine): no appreciable binding affinity

— patent US9297017B2, “Methods and compositions for targeted protein degradation” (University of Washington, priority 2010, dated 2016)
